Test results reported in US10941132B2, “Pyrazole derivatives” (HUA MEDICINE (SHANGHAI) Ltd., priority 2016, dated 2021).

Each molecule was assayed against T1, recombinant rat mGluR5 (Rattus norvegicus, UniProt P31424) (assay: Functional calcium flux assay (FLIPR), antagonist evaluation against glutamate-evoked [Ca2+]i increase). Conditions: Table 1; HEK293 cells stably expressing recombinant rat mGluR5; 15 min incubation of test compound, then submaximal glutamate; read-out: IC50 value (FLIPR assay).
T1 construct: expressed in transfected cells
T1 sequence (P31424 21-1203): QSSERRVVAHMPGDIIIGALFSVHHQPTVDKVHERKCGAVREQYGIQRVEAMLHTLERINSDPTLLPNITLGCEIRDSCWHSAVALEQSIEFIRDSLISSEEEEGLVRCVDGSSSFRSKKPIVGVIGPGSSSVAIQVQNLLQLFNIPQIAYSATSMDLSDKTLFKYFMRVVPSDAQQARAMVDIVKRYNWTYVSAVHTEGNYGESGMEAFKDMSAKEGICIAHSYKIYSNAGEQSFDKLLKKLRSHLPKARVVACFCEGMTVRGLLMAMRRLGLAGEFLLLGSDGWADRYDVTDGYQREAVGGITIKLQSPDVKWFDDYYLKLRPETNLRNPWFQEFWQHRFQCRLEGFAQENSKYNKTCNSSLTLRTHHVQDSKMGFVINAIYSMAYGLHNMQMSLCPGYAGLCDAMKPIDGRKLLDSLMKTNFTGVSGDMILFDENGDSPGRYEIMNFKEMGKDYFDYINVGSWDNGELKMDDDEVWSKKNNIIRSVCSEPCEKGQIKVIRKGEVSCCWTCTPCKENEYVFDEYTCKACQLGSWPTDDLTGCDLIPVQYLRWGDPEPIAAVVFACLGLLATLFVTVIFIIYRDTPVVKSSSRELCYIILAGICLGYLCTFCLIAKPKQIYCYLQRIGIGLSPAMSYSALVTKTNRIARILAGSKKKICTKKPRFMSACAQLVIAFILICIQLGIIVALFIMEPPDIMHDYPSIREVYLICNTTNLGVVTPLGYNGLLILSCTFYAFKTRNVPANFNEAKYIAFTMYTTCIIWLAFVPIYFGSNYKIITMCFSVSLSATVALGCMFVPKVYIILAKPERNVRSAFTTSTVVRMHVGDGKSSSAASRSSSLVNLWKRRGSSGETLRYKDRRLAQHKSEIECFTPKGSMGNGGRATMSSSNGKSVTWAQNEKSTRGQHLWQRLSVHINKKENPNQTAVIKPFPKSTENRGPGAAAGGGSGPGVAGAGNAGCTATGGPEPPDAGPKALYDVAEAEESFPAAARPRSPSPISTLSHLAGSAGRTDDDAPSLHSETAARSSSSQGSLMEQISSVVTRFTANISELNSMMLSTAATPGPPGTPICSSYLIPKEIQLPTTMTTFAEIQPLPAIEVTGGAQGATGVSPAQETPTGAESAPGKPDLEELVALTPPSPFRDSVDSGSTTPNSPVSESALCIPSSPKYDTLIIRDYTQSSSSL
Type: cell-based
Protocol: Functional Calcium Clux Assay Methodology
For functional assays, HEK293 cells stably expressing recombinant rat mGluR5 were seeded in 384-well plates and dye loaded using Fluo-8. Cells were then washed to remove the un-incorporated dye. Antagonist evaluation was performed following a 15 min incubation of the test compound followed by the addition of submaximal concentration of glutamate. Intracellular calcium ([Ca^2+]i) measurements were performed using a fluorometric imaging plate reader (FLIPR, Molecular Devices). The glutamate-evoked increase in [Ca^2′]i in the presence of the test compounds was compared to the response to glutamate alone (the positive control). Antagonist inhibition curves were fitted with a 4-parameter logistic equation giving IC50 values, and Hill coefficients using an iterative nonlinear curve fitting algorithm.
The tables below provide IC50 data in this assay. In the activity column, A=IC50>1,000 and ≤5,000 nM; B=IC50>500 and ≤1,000 nM and C=IC50≤500 nM.
`Fc1ccc(-n2ncc(C#Cc3ncccn3)c2Cl)cc1` [Compound 17] showed an IC50 of at most 500 nM.
`Fc1ccc(-n2cc(C#Cc3ncccn3)cn2)cn1` [Compound 34, 2-((1-(6-fluoropyridin-3-yl)-1H-pyrazol-4-yl)ethynyl)pyrimidine] showed an IC50 of at most 500 nM.
For `N#Cc1cc(F)cc(-n2cc(C#Cc3ncccn3)cn2)c1` [Compound 78, 3-fluoro-5-(4-(pyrimidin-2-ylethynyl)-1H-pyrazol-1-yl) benzonitrile], the IC50 was at most 500 nM.
`COCCOc1nn(-c2cc(F)cc(C#N)c2)cc1C#Cc1ccccn1` [Compound 32, 3-fluoro-5-(3-(2-methoxyethoxy)-4-(pyridin-2-ylethynyl)-1H-pyrazol-1-yl)benzonitrile] was tested, and the IC50 was at most 500 nM.
`COCCOc1nn(-c2cc(F)cc(C#N)c2)c(C)c1C#Cc1ncccn1` [Compound 30, 3-fluoro-5-(3-(2-methoxyethoxy)-5-methyl-4-(pyrimidin-2-ylethynyl)-1H-pyrazol-1-yl)benzonitrile] showed an IC50 of 1000 to 5000 nM.
`FC(F)(F)Oc1ccc(-n2cc(C#Cc3ccccc3)cn2)cc1` [Compound 89, 4-(phenylethynyl)-1-(4-(trifluoromethoxy)phenyl)-1H-pyrazole] was tested, and the IC50 was 1000 to 5000 nM.
In the case of `FC(F)(F)Oc1ccc(-n2ncc(C#Cc3ccccn3)c2Cl)cc1` [Compound 21], the IC50 is reported as at most 500 nM.
`Cc1nn(-c2ccc(F)cc2)c(C)c1C#Cc1ccccn1` [Compound 1] showed an IC50 of at most 500 nM.
`CS(=O)(=O)c1ccc(-n2cc(C#Cc3ccccn3)c(Cl)n2)cc1` [Compound 58, 2-((3-chloro-1-(4-(methylsulfonyl)phenyl)-1H-pyrazol-4-yl)ethynyl)pyridine] was tested, and the IC50 was 1000 to 5000 nM.
Work on `N#Cc1cc(F)cc(-n2cc(C#Cc3ccccc3)cn2)c1` [Compound 74, 3-fluoro-5-(4-(phenylethynyl)-H-pyrazol-1-yl)benzonitrile] yielded an IC50 of 1000 to 5000 nM.
With `Cc1c(C#Cc2ccccn2)c(OC(F)F)nn1-c1cc(F)cc(C#N)c1` [Compound 37, 3-(3-(difluoromethoxy)-5-methyl-4-(pyridin-2-ylethynyl)-1H-pyrazol-1-yl)-5-fluorobenzonitrile] the IC50 was at most 500 nM.
With `COc1nn(-c2ccc(F)cc2)cc1C#Cc1ccccn1` [Compound 52, 2-((1-(4-fluorophenyl)-3-methoxy-1H-pyrazol-4-yl)ethynyl)pyridine] the IC50 was at most 500 nM.
Work on `Fc1ccc(-n2cc(C#Cc3ccccc3)cn2)cc1` [Compound 81, 1-(4-fluorophenyl)-4-(phenylethynyl)-1H-pyrazole] yielded an IC50 of at most 500 nM.
For `Cc1nn(-c2cc(F)cc(C#N)c2)c(C)c1C#Cc1ccccn1` [Compound 5], the IC50 was at most 500 nM.
`Cc1nn(-c2ccc(F)cc2)c(C)c1C#Cc1ncccn1` [Compound 2, 2-((1-(4-fluorophenyl)-3,5-dimethyl-1H-pyrazol-4-yl)ethynyl) pyrimidine] gave an IC50 of at most 500 nM.
`Fc1ccc(-n2cc(C#Cc3ccccn3)c(Cl)n2)nc1` [Compound 49, 2-(3-chloro-4-(pyridin-2-ylethynyl)-1H-pyrazol-1-yl)-5-fluoropyridine] showed an IC50 of at most 500 nM.
With `FC(F)(F)Oc1ccc(-n2cc(C#Cc3ccncc3)cn2)cc1` [Compound 94, 4-((1-(4-(trifluoromethoxy)phenyl)-1H-pyrazol-4-yl)ethynyl)pyridine] the IC50 was 500 to 1000 nM.
For `FC(F)(F)Oc1ccc(-n2cc(C#Cc3cnccn3)cn2)cc1` [Compound 65, 2-((1-(4-(trifluoromethoxy)phenyl)-1H-pyrazol-4-yl)ethyny)pyrazine], the IC50 was 1000 to 5000 nM.
Work on `N#Cc1cc(F)cc(-n2cc(C#Cc3ccncc3)cn2)c1` [Compound 79, 3-fluoro-5-(4-(pyridin-4-ylethynyl)-1H-pyrazol-1-yl)benzonitrile] yielded an IC50 of at most 500 nM.
Work on `Cc1nn(-c2ccc(F)cn2)c(C)c1C#Cc1ccccn1` [Compound 25, 2-(3,5-dimethyl-4-(pyridin-2-ylethynyl)-H-pyrazol-1-yl)-5-fluoropyridine] yielded an IC50 of at most 500 nM.
`FC(F)(F)Oc1ccc(-n2cc(C#Cc3ccccn3)cn2)cc1` [Compound 90, 2-((1-(4-(trifluoromethoxy)phenyl)-1H-pyrazol-4-yl)ethynyl)pyridine] gave an IC50 of at most 500 nM.
For `COc1c(C#Cc2ccccn2)c(C)nn1-c1ccc(F)cc1` [Compound 9, 2-((1-(4-fluorophenyl)-5-methoxy-3-methyl-1H-pyrazol-4-yl)ethynyl)pyridine], the IC50 was at most 500 nM.
With `FC(F)(F)Oc1ccc(-n2ncc(C#Cc3ncccn3)c2Cl)cc1` [Compound 22] the IC50 was at most 500 nM.
`Fc1ccc(-n2cc(C#Cc3ccccn3)c(OC(F)F)n2)nc1` [Compound 68, 2-(3-(difluoromethoxy)-4-(pyridin-2-ylethynyl)-1H-pyrazol-1-yl)-5-fluoropyridine] gave an IC50 of at most 500 nM.
`Fc1ccc(-n2cc(C#Cc3ccccn3)c(Cl)n2)cc1` [Compound 42, 2-((3-chloro-1-(4-fluorophenyl)-1H-pyrazol-4-yl)ethynyl)pyridine] gave an IC50 of at most 500 nM.
`Fc1cncc(-n2cc(C#Cc3ncccn3)c(Cl)n2)c1` [Compound 45, 2-((3-chloro-1-(5-fluoropyridin-3-yl)-1H-pyrazol-4-yl)ethynyl) pyrimidine] gave an IC50 of 1000 to 5000 nM.
`COCCOc1c(C#Cc2ccccn2)cnn1-c1ccc(F)cc1` [Compound 56] gave an IC50 of at most 500 nM.

Same assay, conditions: Table 2; HEK293 cells stably expressing recombinant rat mGluR5; 15 min incubation of test compound, then submaximal glutamate; read-out: IC50 (FLIPR assay)
With `N#Cc1cc(F)cc(-n2ccc(C#Cc3ccccn3)n2)c1` [Compound 105, 3-fluoro-5-(3-(pyridin-2-ylethynyl)-1H-pyrazol-1-yl)benzonitrile] the IC50 was at most 500 nM.
`Cc1cc(C#Cc2ccnc(Cl)c2)nn1-c1ccc(OC(F)(F)F)cc1` [Compound 135, 2-chloro-4-((5-methyl-1-(4-(trifluoromethoxy)phenyl)-1H-pyrazol-3-yl)ethynyl)pyridine] showed an IC50 of 1000 to 5000 nM.
Molecule `Cc1cc(C#Cc2ccnc(Cl)c2)nn1-c1ccc(F)cc1` [Compound 131, 2-chloro-4-((1-(4-fluorophenyl)-5-methyl-1H-pyrazol-3-yl)ethynyl) pyridine] has an IC50 of at most 500 nM.
`Cc1cc(C#Cc2ccncc2)nn1-c1cc(F)cc(C#N)c1` [Compound 102, 3-fluoro-5-(5-methyl-3-(pyridin-4-ylethynyl)-1H-pyrazol-1-yl) benzonitrile] was tested, and the IC50 was at most 500 nM.
`Cc1cn(-c2cc(F)cc(C#N)c2)nc1C#Cc1ccccn1` [Compound 59, 3-fluoro-5-(4-methyl-3-(pyridin-2-ylethynyl)-1H-pyrazol-1-yl) benzonitrile] showed an IC50 of at most 500 nM.
`Cc1cn(-c2cc(F)cc(C#N)c2)nc1C#Cc1ncccn1` [Compound 60, 3-fluoro-5-(4-methyl-3-(pyrimidin-2-ylethynyl)-1H-pyrazol-1-yl) benzonitrile] gave an IC50 of at most 500 nM.
`N#Cc1cc(F)cc(-n2cc(Cl)c(C#Cc3ccccn3)n2)c1` [Compound 61, 3-(4-chloro-3-(pyridin-2-ylethynyl)-1H-pyrazol-1-yl)-5-fluorobenzonitrile] was tested, and the IC50 was at most 500 nM.
`FC(F)(F)Oc1ccc(-n2ccc(C#Cc3cnccn3)n2)cc1` [Compound 125, 2-((1-(4-(trifluoromethoxy)phenyl)-1H-pyrazol-3-yl)ethynyl) pyrazine] was tested, and the IC50 was 1000 to 5000 nM.
In the case of `Cc1cc(C#Cc2cnccn2)nn1-c1cc(F)cc(C#N)c1` [Compound 103, 3-fluoro-5-(5-methyl-3-(pyrazin-2-ylethynyl)-1H-pyrazol-1-yl) Benzonitrile], the IC50 is reported as at most 500 nM.
Work on `Fc1ccc(-n2ccc(C#Cc3cccnc3)n2)cc1` [Compound 114, 3-((1-(4-fluorophenyl)-1H-pyrazol-3-yl)ethynyl)pyridine] yielded an IC50 of 1000 to 5000 nM.
